One test relates to trypsin. Kind of test: Inhibitory activity for trypsin. It is filed as biochemical.
The next test has as its target T1, human thrombin (Homo sapiens, UniProt P00734).
T1 construct: purchased Sigma T-6759
Kind of test: Inhibitory activity for thrombin (chromogenic substrate hydrolysis, 405 nm). The test is classed as biochemical. To be noted: for Selectivity (trypsin/thrombin): IC50 for trypsin divided by IC50 for thrombin; for IC50: human thrombin, 20 min, pH 8.0, N-benzoyl-Phe-Val-Arg-p-nitroanilide. How it is done:
20 μl of each compound of the present invention was dissolved in 50% methanol in various concentrations and then added to each well of a microplate, to each of which 160 μl of the reaction medium containing 125 mM NaCl, 50 mM Tris-HCl (pH 8.0) and 2 mM synthetic substrate (N-benzoyl-Phe-Val-Arg-p-nitroanilide, Sigma B-7632) were added. 20 μl of human thrombin solution (5 units/ml, Sigma T-6759, manufactured by Sigma Co.) containing 0.1% bovine serum albumin was added to each well to initiate the enzymatic reaction. After 20 minutes, the hydrolysis of substrate was determined by measuring the absorbance at 405 nm. […] The selectivity index was calculated by dividing the IC50 value for trypsin by the IC50 value for thrombin. The thrombin inhibitory activity and the trypsin inhibitory activity for the compound of the present invention are shown in the following Table 2.

The structures appear in SMILES notation.

These results are taken from patent publication US6201006A, “Aromatic amidine derivatives useful as selective thrombin inhibitors” (C & C Research Laboratories, priority 1996, dated 2001).

For orientation: IC50 means the concentration that inhibits the measured activity by half. Low readings indicate inhibition by little substance, high ones a need for much substance.

In the case of `CCn1c(CC[C@@H]2CCCN2C(=O)[C@H]2CCCN2C(=O)[C@H](C)NS(C)(=O)=O)cc2ccc(C(=N)N)cc21` [Compound 146, 1-ethyl-2-[2-[(S)-1-[[(R)-1-[(S)-2-(methanesulfonylamino)propanoyl]pyrrolidin-2-yl]carbonyl]pyrrolidin-2-yl]-ethyl]indole-6-carboxamidine], 464 nM corresponded to half-maximal inhibition in the test on trypsin (IC50). Further, on human thrombin, the “Selectivity (trypsin/thrombin)” value turned out to be 21.0 and the IC50 worked out at 22.1 nM. The corresponding values for `CCn1c(CC[C@@H]2CCCN2C(=O)[C@H]2CCCN2C(=O)CCCN)cc2ccc(C(=N)N)cc21` [Compound 166, 1-ethyl-2-[2-[(S)-1-[[(R)-1-(4-aminobutanoyl)pyrrolidin-2-yl]carbonyl]pyrrolidin-2-yl]ethyl]indole-6-carboxamidine] are 617 nM, 18.6 and 33.1 nM. The corresponding values for `CCOC(=O)C(C(=O)N1CCC[C@H]1CCc1cc2ccc(C(=N)N)cc2n1CC)C1CCCC1` (stereo partly drawn) [Compound 44, ethyl 3-[(S)-2-[2-(6-aminido-1-ethylindol-2-yl)ethyl]pyrrolidinyl]-2-cyclopentyl-3-oxopropanoate] are 313 nM, 33.9 and 9.23 nM. The corresponding values for `CCn1c(CC[C@@H]2CCCN2C(=O)C(c2ccccc2)C2CCCC2)cc2ccc(C(=N)N)cc21` (stereo partly drawn) [Compound 30, 1-ethyl-2-[2-[(S)-1-(2-cyclopentyl-2-phenylacetyl)pyrrolidin-2-yl]ethyl]indole-6-carboxamidine] are 420 nM, 46.6 and 9.01 nM. Take `CCn1c(CC[C@@H]2CCCN2C(=O)[C@H]2CCCN2CC(N)=O)cc2ccc(C(=N)N)cc21` [Compound 114, 1-ethyl-2-[2-[(S)-1-[[(R)-1-(carbamo-ylmethyl)pyrrolidin-2-yl]carbonyl]pyrrolidin-2-yl]ethyl]indole-6-carboxamidine]: the IC50 in the test on trypsin came out at 500 nM. On human thrombin, the “Selectivity (trypsin/thrombin)” value stood at 28.8 and the IC50 came out at 17.4 nM.

In the test on trypsin, `CCn1c(CC[C@@H]2CCCN2C(=O)CN(C2CC2)S(C)(=O)=O)cc2ccc(C(=N)N)cc21` [Compound 58, 1-ethyl-2-[2-[(S)-1-[2-[cyclopropyl(methylsulfonyl)amino]acetyl]pyrrolidin-2-yl]ethyl]indole-6-carboxamidine] came in with an IC50 of 52.2 nM. Further, on human thrombin, the “Selectivity (trypsin/thrombin)” value turned out to be 17.4 and the IC50 is 3 nM. The corresponding values for `CCn1c(CCC2CCCN2C(=O)C2CCCN2C(=O)CC(NS(C)(=O)=O)C(N)=O)cc2ccc(C(=N)N)cc21` [Compound 162, 1-ethyl-2-[2-[(S)-1-[[1-[(R)-1-[3-carbamoyl-(S)-3-[(methanesulfonyl)amino]propanoyl]pyrrolidin-2-yl]carbonyl]pyrrolidin-2-yl]ethyl]indole-6-carboxamidine] are 329 nM, 45.0 and 7.3 nM. `CCOC(=O)CCCCN1CCC[C@@H]1C(=O)N1CCC[C@H]1CCc1cc2ccc(C(=N)N)cc2n1CC` [Compound 128, ethyl 5-[(R)-2-[[(S)-2-[2-(6-amidino-1-ethylindol-2-yl)ethyl]pyrrolidinyl]carbonyl]pyrrolidinyl]pentanoate] showed an IC50 against human thrombin of 26.2 nM.

In turn, `CCOC(=O)C(C)N1CCC[C@@H]1C(=O)N1CCC[C@H]1CCc1cc2ccc(C(=N)N)cc2n1CC` (stereo partly drawn) [Compound 109, ethyl-2-[(R)-2-[[(S)-2-[2-(6-amidino-1-ethylindol-2-yl)ethyl]pyrrolidinyl]carbonyl]pyrrolidinyl]propionate] gave an IC50 against human thrombin of 31.9 nM. The same measure, in the same setting: next, `CCn1c(CC[C@@H]2CCCN2C(=O)[C@H]2CCCN2C(=O)C(C)CN)cc2ccc(C(=N)N)cc21` (stereo partly drawn) [Compound 156, 1-ethyl-2-[2-[(S)-1-[[(R)-1-(3-amino-2-methylpropanoyl)pyrrolidin-2-yl]carbonyl]pyrrolidin-2-yl]ethyl]indole-6-carboxamidine]: 28.6 nM; `CCCC(CCC)C(=O)N1CCC[C@@H]1C(=O)N1CCC[C@H]1CCc1cc2ccc(C(=N)N)cc2n1CC` [Compound 173, 1-ethyl-2-[2-[(S)-1-[[(R)-1-(2-propylpentanoyl)pyrrolidin-2-yl]carbonyl]pyrrolidin-2-yl]ethyl]indole-6-carboxamidine]: 34.6 nM; `CCn1c(CC[C@@H]2CCCN2C(=O)[C@H]2CCCN2CC(=O)NC2CC2)cc2ccc(C(=N)N)cc21` [Compound 115, 1-ethyl-2-[2-[(S)-1-[[(R)-1-[(N-cyclopropylcarbamoyl)methyl]pyrrolidin-2-yl]carbonyl]pyrrolidin-2-yl]-ethyl]indole-6-carboxamidine]: 31.8 nM. Regarding `CC(=O)N1CCC[C@@H]1C(=O)N1CCC[C@H]1CCc1cc2ccc(C(=N)N)cc2n1CC(N)=O` [Compound 224, 2-[2-[(S)-1-[((R)-1-acetylpyrrolidin-2-yl)carbonyl]pyrrolidin-2-yl]ethyl]-1-(carbamoylmethyl)indole-6-carboxamidine], on human thrombin, the IC50 was 24.1 nM. At human thrombin, `CCn1c(CCC2CCCN2C(=O)C2CCCN2C(CC(=O)O)C(=O)O)cc2ccc(C(=N)N)cc21` [Compound 123, 1-[(R)-2-[[(S)-2-[2-(6-amidino-1-ethyl-indol-2-yl)ethyl]pyrrolidinyl]carbonyl]pyrrolidinyl]ethane-1,2-dicarboxylic acid] returned a half-maximal inhibitory concentration (IC50) of 32.9 nM.

Turning to `CCn1c(CC[C@@H]2CCCN2C(=O)CNC2CC2)cc2ccc(C(=N)N)cc21` [Compound 57, 1-ethyl-2-[2-[(S)-1-(2-cyclopropylaminoacetyl)pyrrolidin-2-yl]ethyl]indole-6-carboxamidine], the IC50 against human thrombin came to 7.73 nM. On the same count and under the same terms, next, `CCn1c(CC[C@@H]2CCCN2C(=O)[C@H](NS(C)(=O)=O)c2ccccc2)cc2ccc(C(=N)N)cc21` [Compound 37, 1ethyl-2-[2-[(S)-1-((R)-2-methylsulfonylamino-2-phenylacetyl)pyrrolidin-2-yl]ethyl]indole-6-carboxamidine]: 5.4 nM; `CCn1c(CC[C@H]2C[C@H](C)CN2C(=O)[C@H]2CCCN2CC(=O)O)cc2ccc(C(=N)N)cc21` [Compound 98, 2-[(R)-2-[[(S)-2-[2-(6-amidino-1-ethylindol-2-yl)ethyl]-(S)-4-methylpyrrolidinyl]carbonyl]pyrrolidinyl]acetic acid]: 20.3 nM. On to `CCOC(=O)CN(CC(=O)N1CCC[C@H]1CCc1cc2ccc(C(=N)N)cc2n1CC)C1CC1` [Compound 62, ethyl 2-[[2-[(S)-2-[2-(6-amidino-1-ethylindol-2-yl)ethyl]pyrrolidinyl]-2-oxoethyl]cyclopropylamino]acetate], for which, at human thrombin, the “Selectivity (trypsin/thrombin)” value was found to be 49.7 and inhibition was half-maximal at 11.7 nM (IC50).

Compound `CCn1c(CC[C@@H]2CCCN2C(=O)[C@H](NCC(=O)O)c2ccccc2)cc2ccc(C(=N)N)cc21` [Compound 40, 2-[[(R)-2-[2-(S)-2-[2-(6-amidino-1-ethylindol-2-yl)ethyl]pyrrolidinyl]-2-oxo-1-phenylethyl]amino]acetic acid] gave an IC50 on human thrombin of 7.95 nM. On the same count and under the same terms, as for `CCn1c(CC[C@@H]2CCCN2C(=O)[C@H](NCC(N)=O)c2ccccc2)cc2ccc(C(=N)N)cc21` [Compound 39, 1ethyl-2-[2-[(S)-1-[(R)-2-(carbamoylmethylamino)-2-phenylacetyl]pyrrolidin-2-yl]ethyl]indole-6-carboxamidine], the figure is 6.91 nM. In the case of `CCOC(=O)CC(=O)N1CCC[C@@H]1C(=O)N1CCC[C@H]1CCc1cc2ccc(C(=N)N)cc2n1CC` [Compound 174, ethyl 3-[(R)-2-[[(S)-2-[2-(6-amidino-1-ethylindol-2-yl)ethyl]pyrrolidinyl]carbonyl]pyrrolidinyl]-3-oxopropanoate], on human thrombin, the “Selectivity (trypsin/thrombin)” value came to 25.7 and the IC50 amounted to 16.2 nM. The corresponding values for `CCOC(=O)C(CC)N1CCC[C@@H]1C(=O)N1CCC[C@H]1CCc1cc2ccc(C(=N)N)cc2n1CC` (stereo partly drawn) [Compound 110, ethyl 2-[(R)-2-[[(S)-2-[2-(6-amidino-1-ethylindol-2-yl)ethyl]pyrrolidinyl]carbonyl]pyrrolidinyl]butanoate] are 38.6 and 37.7 nM.

As for `N=C(N)c1ccc2cc(CC[C@H]3CCCN3C(=O)Cc3ccccc3)ccc2c1` [Compound 244, 6-[2-[(S)-1-(2-phenylacetyl)pyrrolidine-2-yl]ethyl]naphthalene-2-carboxamidine], it took 53.6 nM to reach half-maximal inhibition on human thrombin (IC50). Same read-out and setting: next, `CCOC(=O)C(c1ccccc1)N1CCC[C@@H]1C(=O)N1CCC[C@H]1CCc1cc2ccc(C(=N)N)cc2n1CC` (stereo partly drawn) [Compound 112, ethyl-2-[(R)-2-[[(S)-2-[2-(6-amidino-1-ethylindol-2-yl)ethyl]pyrrolidinyl]carbonyl]pyrrolidinyl]-2-phenylacetate]: 29.2 nM; `CCn1c(CC[C@@H]2CCCN2C(=O)[C@H]2CCC(=O)N2CC(N)=O)cc2ccc(C(=N)N)cc21` [Compound 187, 1-ethyl-2-[2-[(S)-1-[[(R)-1-(carbamoylmethyl)-5-oxo-pyrrolidin-2-yl]carbonyl]pyrrolidin-2-yl]ethyl]indole-6-carboxamidine]: 25.6 nM. For the compound `CCn1c(CC[C@@H]2CCCN2C(=O)[C@H]2CCCN2CCCCCC(=O)O)cc2ccc(C(=N)N)cc21` [Compound 131, 6-[(R)-2-[[(S)-2-[2-(6-amidino-1-ethylindol-2-yl)-ethyl]pyrrolidinyl]carbonyl]pyrrolidinyl]hexanoic acid], at human thrombin, the “Selectivity (trypsin/thrombin)” value stood at 14.7 and the IC50 is 9.29 nM.
